Laboratory results as given in publication PMC8041777, “Protein kinase A controls the hexosamine pathway by tuning the feedback inhibition of GFAT-1” (Nature Communications, 2021).

Biological target: T1, GFAT-1 (human GFAT-1 isoform 2, hGFAT1) (Homo sapiens, UniProt Q06210)
T1 construct: gene GFPT1; full length, internal His6-tag between Gly299 and Asp300 (kept), expressed in Sf21 insect cells (MultiBac), Ni-NTA and SEC purified
Experiment: GDH-coupled amidohydrolysis assay (APADH at […] nm)
Assay type: biochemical
Conditions: 10 mM L-Gln, 6 mM Frc6P, 1 mM APAD, 50 mM KCl, 100 mM potassium phosphate pH 7.5, 37 °C; allosteric feedback inhibitor, isomerase domain site

T1 sequence (Q06210 2-681 isoform Q06210-2): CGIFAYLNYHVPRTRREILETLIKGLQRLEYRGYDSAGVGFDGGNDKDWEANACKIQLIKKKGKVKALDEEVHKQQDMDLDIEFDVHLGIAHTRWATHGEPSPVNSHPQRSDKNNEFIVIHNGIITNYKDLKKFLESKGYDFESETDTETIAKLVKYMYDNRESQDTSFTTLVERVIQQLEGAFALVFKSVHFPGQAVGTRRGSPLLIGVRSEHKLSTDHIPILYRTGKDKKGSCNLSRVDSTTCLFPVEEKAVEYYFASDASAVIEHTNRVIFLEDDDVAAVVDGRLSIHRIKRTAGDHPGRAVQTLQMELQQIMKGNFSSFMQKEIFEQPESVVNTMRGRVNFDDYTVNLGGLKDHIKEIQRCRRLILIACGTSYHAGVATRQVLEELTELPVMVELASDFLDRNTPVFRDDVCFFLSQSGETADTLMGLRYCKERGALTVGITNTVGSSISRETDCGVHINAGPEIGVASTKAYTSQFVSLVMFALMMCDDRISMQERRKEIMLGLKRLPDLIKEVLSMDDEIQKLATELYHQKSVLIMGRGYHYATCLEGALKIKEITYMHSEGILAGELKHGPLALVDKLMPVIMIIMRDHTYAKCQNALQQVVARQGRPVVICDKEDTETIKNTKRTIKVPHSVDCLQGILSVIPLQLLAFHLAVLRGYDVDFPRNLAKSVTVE

Compound: CC(=O)N[C@H]1[C@@H](OP(=O)(O)OP(=O)(O)OC[C@H]2O[C@@H](n3ccc(=O)[nH]c3=O)[C@H](O)[C@@H]2O)O[C@H](CO)[C@@H](O)[C@@H]1O [UDP-GlcNAc]
- IC50: 41.4 −3.5/+3.9 µM
